From patent publication US10233179B2, “Thiazoles and uses thereof” (AbbVie Inc., priority 2013, dated 2019) come the findings set out here.

Each structure is given as a SMILES string.

Series [1] deals with RSV (Group A, Long Strain). The experiment in a line: Antiviral cytopathic effect (CPE) protection assay, MTT readout. It counts as cell-based. The settings on record: human respiratory syncytial virus, 96 h; HEp-2 cells, 0.2 MOI RSV, 4 days incubation, protection from CPE by MTT.
In series [2] the test system is HEp-2 cells. The experiment in a line: Cytotoxicity assay (MTT) in parallel with the antiviral assay. It counts as cell-based.
Where [3] appears, read: uninfected HEp-2 cells, 4 days incubation, MTT viability.

`C[C@H](c1ccc(F)cc1)N(Cc1cccn1-c1nccs1)Cc1cccn1-c1nccs1` [Example 62, (1R)-1-(4-fluorophenyl)-N,N-bis{[1-(1,3-thiazol-2-yl)-1H-pyrrol-2-yl]methyl}ethanamine]: in series [1], the concentration for a half-maximal effect (EC50) is above 3000 nM. In series [2] (setting [3]), the “MTT TD50” value stood at 3.0 µM.
`c1coc(CN(Cc2cccn2-c2nccs2)Cc2cccn2-c2nccs2)c1` [Example 63, 1-(furan-2-yl)-N,N-bis{[1-(1,3-thiazol-2-yl)-1H-pyrrol-2-yl]methyl}methanamine]: the EC50 in series [1] came to 260 nM. Moreover, the “MTT TD50” value in series [2] (setting [3]) is 20 µM.
Turning to `CC(Cc1cccs1)N(Cc1cccn1-c1nccs1)Cc1cccn1-c1nccs1` (stereo not drawn) [Example 64, N,N-bis{[1-(1,3-thiazol-2-yl)-1H-pyrrol-2-yl]methyl}-1-(thiophen-2-yl)propan-2-amine], a half-maximal effect in series [1] (EC50) was put at 330 nM. Further, the “MTT TD50” value in series [2] (human, 4 days) worked out at 5.6 µM.
The compound `c1cncc(C2(CN(Cc3cccn3-c3nccs3)Cc3cccn3-c3nccs3)CC2)c1` [Example 65, 1-[1-(pyridin-3-yl)cyclopropyl]-N,N-bis{[1-(1,3-thiazol-2-yl)-1H-pyrrol-2-yl]methyl}methanamine] had an EC50 in series [1] of 90 nM. Besides, in series [2] (setting [3]), the “MTT TD50” value is 25 µM.
For `c1cc(CN(CCC2(c3ccncc3)CC2)Cc2cccn2-c2nccs2)n(-c2nccs2)c1` [Example 66, 2-[1-(pyridin-4-yl)cyclopropyl]-N,N-bis{[1-(1,3-thiazol-2-yl)-1H-pyrrol-2-yl]methyl}ethanamine], in that order: 200 nM and 14 µM.
`N#Cc1cc(CN(Cc2cccn2-c2nccs2)Cc2cccn2-c2nccs2)cs1` [Example 67, 4-[(bis{[1-(1,3-thiazol-2-yl)-1H-pyrrol-2-yl]methyl}amino)methyl]thiophene-2-carbonitrile] returned an EC50 in series [1] of 82 nM. Further, the “MTT TD50” value in series [2] (setting [3]) is above 32 µM.
